Laboratory results reported in PMC4447944 (The Journal of Biological Chemistry, 2015).

What was measured:
[1] = test system: lysine methylation of histone H3 or H4; assay: Mass spectrometry proteomics of cell-derived histones, SMYD2-overexpressing KYSE-150 cells; assay type: cell-based, human; conditions: 5 μM LLY-507 versus untreated cells
Experimental: Acid-extracted histone samples were chemically derivatized using propionic anhydride and digested with trypsin for 6 h at 37 °C. The digested peptides were treated with an additional round of propionylation and desalted using a C18 extracted mini disk (Empore 3M). Approximately 1 μg of each sample was loaded via an autosampler (Eksigent NanoLC.Ultra 2D Plus) onto a homemade precolumn (3-μm particle size, 120-Å pore size) at a flow rate of 2 μl/min. Peptides were chromatographically resolved via a 75-μm reversed phase analytical column packed with C18-AQ resin (1.9-μm particle size, 120-Å pore size) using a 77-min 2–98% solvent B gradient (solvent A, 0.1% formic acid; solvent B, 100% acetonitrile) at a flow rate of 250 nl/min. The electrosprayed peptides were detected by an Orbitrap Elite^TM mass spectrometer (Thermo Fisher Scientific) with a resolution of 120,000 for full MS spectrum followed by MS/MS spectra obtained in the ion trap. The relative abundance of each modification, expressed as a percentage on a histone peptide sequence, was quantified by analyzing its MS and MS/MS spectra via Epiquant, an in-house software.

[2] = biological target: T1, hALK(L1196M) (Homo sapiens, UniProt Q9UM73, L1196M); assay: KINOMEscan; assay type: binding
T1 construct: purchased DiscoverX

[3] = biological target: T2, hBIKE (Homo sapiens, UniProt Q9NSY1); assay: KINOMEscan; assay type: binding
T2 construct: purchased DiscoverX

[4] = biological target: T3, hBRSK1 (Homo sapiens, UniProt Q8TDC3); assay: KINOMEscan; assay type: binding
T3 construct: purchased DiscoverX

[5] = biological target: T4, hCLK1 (Homo sapiens, UniProt P49759); assay: KINOMEscan; assay type: binding
T4 construct: purchased DiscoverX

[6] = biological target: T5, hCLK3 (Homo sapiens, UniProt P49761); assay: KINOMEscan; assay type: binding
T5 construct: purchased DiscoverX

[7] = biological target: T6, hCSNK1G3 (Homo sapiens, UniProt Q9Y6M4); assay: KINOMEscan; assay type: binding
T6 construct: purchased DiscoverX (KINOMEscan platform)

[8] = biological target: T7, hDDR1 (Homo sapiens, UniProt Q08345); assay: KINOMEscan; assay type: binding
T7 construct: purchased DiscoverX (KINOMEscan platform)

[9] = biological target: T8, hEGFR(G719C) (Homo sapiens, UniProt P00533, G719C); assay: KINOMEscan; assay type: binding
T8 construct: purchased DiscoverX

[10] = biological target: T9, hEPHA8 (Homo sapiens, UniProt P29322); assay: KINOMEscan; assay type: binding
T9 construct: purchased DiscoverX

[11] = biological target: T10, hEPHB4 (Homo sapiens, UniProt P54760); assay: KINOMEscan; assay type: binding
T10 construct: purchased DiscoverX

[12] = biological target: T11, hERBB2 (Homo sapiens, UniProt P04626); assay: KINOMEscan; assay type: binding
T11 construct: purchased DiscoverX

[13] = biological target: T12, hFAK (Homo sapiens, UniProt Q05397); assay: KINOMEscan; assay type: binding
T12 construct: purchased DiscoverX

[14] = biological target: T13, hFLT3 (Homo sapiens, UniProt P36888); assay: KINOMEscan; assay type: binding
T13 construct: purchased DiscoverX

[15] = biological target: T14, hFLT3(D835H) (Homo sapiens, UniProt P36888, D835H); assay: KINOMEscan; assay type: binding
T14 construct: purchased DiscoverX

[16] = biological target: T15, hFLT4 (Homo sapiens, UniProt P35916); assay: KINOMEscan; assay type: binding
T15 construct: purchased DiscoverX

[17] = biological target: T16, hINSR (Homo sapiens, UniProt P06213); assay: KINOMEscan; assay type: binding
T16 construct: purchased DiscoverX (KINOMEscan panel)

[18] = biological target: T17, hINSRR (Homo sapiens, UniProt P14616); assay: KINOMEscan; assay type: binding
T17 construct: purchased DiscoverX (KINOMEscan panel)

[19] = biological target: T18, hKIT (Homo sapiens, UniProt P10721); assay: KINOMEscan; assay type: binding
T18 construct: purchased DiscoverX (KINOMEscan panel)

[20] = biological target: T19, hLCK (Homo sapiens, UniProt P06239); assay: KINOMEscan; assay type: binding
T19 construct: purchased DiscoverX (KINOMEscan platform)

[21] = biological target: T20, hMAP4K5 (Homo sapiens, UniProt Q9Y4K4); assay: KINOMEscan; assay type: binding
T20 construct: purchased DiscoverX

[22] = biological target: T21, hMEK1 (Homo sapiens, UniProt Q02750); assay: KINOMEscan; assay type: binding
T21 construct: purchased DiscoverX

[23] = biological target: T22, hRPS6KA4(Kin.Dom.1-N-term) (Homo sapiens, UniProt O75676); assay: KINOMEscan; assay type: binding
T22 construct: hRPS6KA4(Kin.Dom.1-N-term); purchased DiscoverX (KINOMEscan platform)

[24] = biological target: T23, hSTK16 (Homo sapiens, UniProt O75716); assay: KINOMEscan; assay type: binding
T23 construct: purchased DiscoverX (KINOMEscan platform)

[25] = biological target: T24, hTRKA (Homo sapiens, UniProt P04629); assay: KINOMEscan; assay type: binding
T24 construct: purchased DiscoverX

[26] = biological target: T25, hTRPM6 (Homo sapiens, UniProt Q9BX84); assay: KINOMEscan; assay type: binding
T25 construct: purchased DiscoverX

[27] = biological target: T26, hWEE2 (Homo sapiens, UniProt P0C1S8); assay: KINOMEscan; assay type: binding
T26 construct: purchased DiscoverX

[28] = biological target: hADRβ2 (Homo sapiens, UniProt P07550); assay: β-arrestin Antagonist (Eurofins-CEREP); conditions: read-out: % Effect, Inhibition
[29] = biological target: T27, hADRα1A (Homo sapiens, UniProt P35348); assay: Calcium Mobilization Antagonist (Eurofins-CEREP); conditions: read-out: % Effect, Inhibition
T27 sequence (P35348 1-466): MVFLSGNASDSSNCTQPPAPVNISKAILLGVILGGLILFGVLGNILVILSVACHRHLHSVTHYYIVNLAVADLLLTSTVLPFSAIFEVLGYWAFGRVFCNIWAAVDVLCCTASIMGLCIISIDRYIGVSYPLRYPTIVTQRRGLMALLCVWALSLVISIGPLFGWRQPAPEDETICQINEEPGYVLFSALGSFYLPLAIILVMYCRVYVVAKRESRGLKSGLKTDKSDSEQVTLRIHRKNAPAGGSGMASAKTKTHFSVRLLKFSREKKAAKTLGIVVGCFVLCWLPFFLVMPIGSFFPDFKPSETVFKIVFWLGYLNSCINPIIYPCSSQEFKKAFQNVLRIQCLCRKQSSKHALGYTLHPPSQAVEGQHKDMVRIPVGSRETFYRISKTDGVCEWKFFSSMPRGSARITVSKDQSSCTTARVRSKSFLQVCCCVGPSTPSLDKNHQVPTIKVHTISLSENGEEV

T20 sequence (Q9Y4K4 whole entry): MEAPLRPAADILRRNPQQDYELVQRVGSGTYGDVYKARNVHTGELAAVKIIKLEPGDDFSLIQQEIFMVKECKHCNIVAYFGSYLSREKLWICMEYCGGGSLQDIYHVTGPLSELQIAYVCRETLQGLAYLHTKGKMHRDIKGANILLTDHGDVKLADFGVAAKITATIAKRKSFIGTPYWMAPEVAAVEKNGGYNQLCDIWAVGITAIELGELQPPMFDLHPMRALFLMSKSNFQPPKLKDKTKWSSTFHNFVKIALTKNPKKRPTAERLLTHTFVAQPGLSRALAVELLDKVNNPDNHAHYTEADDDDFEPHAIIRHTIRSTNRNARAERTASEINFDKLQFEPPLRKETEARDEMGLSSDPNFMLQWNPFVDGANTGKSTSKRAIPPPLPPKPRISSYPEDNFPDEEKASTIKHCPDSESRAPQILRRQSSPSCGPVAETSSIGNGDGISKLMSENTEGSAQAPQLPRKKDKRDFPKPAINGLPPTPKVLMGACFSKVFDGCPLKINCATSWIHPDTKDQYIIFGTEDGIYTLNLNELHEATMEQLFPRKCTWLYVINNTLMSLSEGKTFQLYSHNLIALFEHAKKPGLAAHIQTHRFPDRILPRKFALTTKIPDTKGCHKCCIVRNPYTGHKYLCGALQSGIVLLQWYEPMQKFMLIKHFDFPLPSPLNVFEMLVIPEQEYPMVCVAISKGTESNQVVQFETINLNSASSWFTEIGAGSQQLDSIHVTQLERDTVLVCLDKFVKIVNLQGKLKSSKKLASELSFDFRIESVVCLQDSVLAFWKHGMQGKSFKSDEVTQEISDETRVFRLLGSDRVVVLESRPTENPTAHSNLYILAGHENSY
T5 sequence (P49761 whole entry): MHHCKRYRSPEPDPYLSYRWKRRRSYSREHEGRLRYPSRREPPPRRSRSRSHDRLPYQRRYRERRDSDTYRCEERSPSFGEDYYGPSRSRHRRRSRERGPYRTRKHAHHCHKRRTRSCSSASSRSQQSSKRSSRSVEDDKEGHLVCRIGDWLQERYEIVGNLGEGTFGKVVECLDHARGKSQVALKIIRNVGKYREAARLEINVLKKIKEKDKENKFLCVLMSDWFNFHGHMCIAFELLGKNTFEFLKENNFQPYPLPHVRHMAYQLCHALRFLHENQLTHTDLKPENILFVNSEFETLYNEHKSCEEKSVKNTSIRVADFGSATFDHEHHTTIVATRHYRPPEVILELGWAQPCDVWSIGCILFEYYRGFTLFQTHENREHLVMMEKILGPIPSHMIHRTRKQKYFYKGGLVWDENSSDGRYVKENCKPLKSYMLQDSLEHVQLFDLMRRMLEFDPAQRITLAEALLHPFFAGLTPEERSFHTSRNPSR
T2 sequence (Q9NSY1 whole entry): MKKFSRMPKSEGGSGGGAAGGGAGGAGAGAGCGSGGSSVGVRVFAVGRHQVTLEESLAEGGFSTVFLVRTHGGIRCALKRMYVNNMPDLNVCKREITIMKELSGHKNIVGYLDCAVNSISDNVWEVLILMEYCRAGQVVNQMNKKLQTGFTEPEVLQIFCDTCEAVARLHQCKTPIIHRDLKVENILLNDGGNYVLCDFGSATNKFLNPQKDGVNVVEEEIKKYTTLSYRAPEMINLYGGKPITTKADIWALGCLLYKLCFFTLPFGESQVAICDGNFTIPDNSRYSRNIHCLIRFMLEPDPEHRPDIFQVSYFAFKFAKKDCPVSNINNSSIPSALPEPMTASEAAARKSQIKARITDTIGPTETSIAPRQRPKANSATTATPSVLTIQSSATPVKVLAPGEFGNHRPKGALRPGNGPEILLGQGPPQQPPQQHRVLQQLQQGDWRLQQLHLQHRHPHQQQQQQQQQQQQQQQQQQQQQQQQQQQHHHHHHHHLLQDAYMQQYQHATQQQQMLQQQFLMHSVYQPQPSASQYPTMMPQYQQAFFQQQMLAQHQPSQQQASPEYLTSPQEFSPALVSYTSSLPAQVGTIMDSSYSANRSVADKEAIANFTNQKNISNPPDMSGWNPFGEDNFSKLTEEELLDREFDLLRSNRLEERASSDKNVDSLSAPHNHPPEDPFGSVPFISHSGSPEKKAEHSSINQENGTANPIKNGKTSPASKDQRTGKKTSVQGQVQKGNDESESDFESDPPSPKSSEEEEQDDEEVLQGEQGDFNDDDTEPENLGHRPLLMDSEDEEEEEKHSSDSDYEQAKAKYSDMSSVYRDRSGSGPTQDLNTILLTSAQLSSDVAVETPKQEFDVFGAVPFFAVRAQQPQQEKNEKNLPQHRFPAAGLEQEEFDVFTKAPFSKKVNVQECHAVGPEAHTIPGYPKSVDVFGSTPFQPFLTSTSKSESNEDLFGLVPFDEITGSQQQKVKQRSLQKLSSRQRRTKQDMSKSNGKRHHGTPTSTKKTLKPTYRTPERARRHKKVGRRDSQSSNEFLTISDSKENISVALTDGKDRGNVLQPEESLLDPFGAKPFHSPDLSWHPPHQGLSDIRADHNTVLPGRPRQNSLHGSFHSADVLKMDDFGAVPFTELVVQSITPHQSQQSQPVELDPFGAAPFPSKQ
T23 sequence (O75716 whole entry): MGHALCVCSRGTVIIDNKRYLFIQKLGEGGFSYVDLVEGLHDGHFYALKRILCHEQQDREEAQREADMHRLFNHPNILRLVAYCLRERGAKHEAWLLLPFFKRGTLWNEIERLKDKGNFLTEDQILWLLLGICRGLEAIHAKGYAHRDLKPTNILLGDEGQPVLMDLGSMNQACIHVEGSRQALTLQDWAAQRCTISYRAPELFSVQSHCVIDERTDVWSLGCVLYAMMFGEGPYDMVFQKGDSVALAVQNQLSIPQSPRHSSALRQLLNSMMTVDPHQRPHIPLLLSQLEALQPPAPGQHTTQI
T3 sequence (Q8TDC3 whole entry): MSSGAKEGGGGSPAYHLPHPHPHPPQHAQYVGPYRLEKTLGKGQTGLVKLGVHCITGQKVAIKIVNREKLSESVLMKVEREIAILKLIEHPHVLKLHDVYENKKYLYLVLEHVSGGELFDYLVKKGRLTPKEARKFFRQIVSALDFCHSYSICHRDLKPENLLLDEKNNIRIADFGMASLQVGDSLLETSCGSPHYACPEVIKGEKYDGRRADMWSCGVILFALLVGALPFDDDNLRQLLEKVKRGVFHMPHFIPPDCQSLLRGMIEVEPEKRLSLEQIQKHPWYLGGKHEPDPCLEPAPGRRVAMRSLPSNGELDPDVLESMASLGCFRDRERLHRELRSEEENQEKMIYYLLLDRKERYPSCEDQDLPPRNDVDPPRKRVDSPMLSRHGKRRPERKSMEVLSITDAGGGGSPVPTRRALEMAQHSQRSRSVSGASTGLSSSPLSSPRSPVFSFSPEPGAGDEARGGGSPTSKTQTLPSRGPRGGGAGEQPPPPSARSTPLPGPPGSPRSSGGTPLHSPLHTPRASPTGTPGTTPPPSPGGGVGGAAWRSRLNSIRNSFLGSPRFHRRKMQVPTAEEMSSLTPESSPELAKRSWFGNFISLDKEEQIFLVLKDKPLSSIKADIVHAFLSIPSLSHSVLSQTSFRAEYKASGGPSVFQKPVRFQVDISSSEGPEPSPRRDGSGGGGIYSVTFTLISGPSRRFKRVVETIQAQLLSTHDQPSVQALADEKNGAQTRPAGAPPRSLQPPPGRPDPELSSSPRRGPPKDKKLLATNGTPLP
T18 sequence (P10721 26-976): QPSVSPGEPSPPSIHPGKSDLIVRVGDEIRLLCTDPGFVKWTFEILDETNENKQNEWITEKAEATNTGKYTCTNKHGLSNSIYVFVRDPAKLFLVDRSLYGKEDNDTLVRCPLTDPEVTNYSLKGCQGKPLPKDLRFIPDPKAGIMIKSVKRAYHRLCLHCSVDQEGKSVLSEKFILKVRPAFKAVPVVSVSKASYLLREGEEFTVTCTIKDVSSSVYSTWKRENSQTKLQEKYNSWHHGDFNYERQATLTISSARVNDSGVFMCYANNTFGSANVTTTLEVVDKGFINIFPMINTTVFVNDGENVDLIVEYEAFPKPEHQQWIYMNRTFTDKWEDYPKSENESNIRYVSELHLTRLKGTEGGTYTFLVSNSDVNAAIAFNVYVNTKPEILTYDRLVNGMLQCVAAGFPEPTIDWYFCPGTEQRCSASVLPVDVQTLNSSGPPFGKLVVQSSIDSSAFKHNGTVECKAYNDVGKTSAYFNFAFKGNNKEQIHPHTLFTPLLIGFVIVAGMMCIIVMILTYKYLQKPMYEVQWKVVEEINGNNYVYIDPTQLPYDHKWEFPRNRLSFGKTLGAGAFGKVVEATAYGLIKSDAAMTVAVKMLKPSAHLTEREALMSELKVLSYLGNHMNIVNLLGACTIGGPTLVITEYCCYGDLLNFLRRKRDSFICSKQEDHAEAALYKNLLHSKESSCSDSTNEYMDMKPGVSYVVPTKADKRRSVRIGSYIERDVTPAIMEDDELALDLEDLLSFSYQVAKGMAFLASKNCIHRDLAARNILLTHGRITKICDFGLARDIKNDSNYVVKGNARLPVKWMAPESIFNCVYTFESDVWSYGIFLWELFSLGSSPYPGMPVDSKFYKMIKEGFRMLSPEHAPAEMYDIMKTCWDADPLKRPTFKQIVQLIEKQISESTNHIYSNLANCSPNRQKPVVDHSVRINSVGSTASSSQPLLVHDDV
T22 sequence (O75676 33-301 limits assumed): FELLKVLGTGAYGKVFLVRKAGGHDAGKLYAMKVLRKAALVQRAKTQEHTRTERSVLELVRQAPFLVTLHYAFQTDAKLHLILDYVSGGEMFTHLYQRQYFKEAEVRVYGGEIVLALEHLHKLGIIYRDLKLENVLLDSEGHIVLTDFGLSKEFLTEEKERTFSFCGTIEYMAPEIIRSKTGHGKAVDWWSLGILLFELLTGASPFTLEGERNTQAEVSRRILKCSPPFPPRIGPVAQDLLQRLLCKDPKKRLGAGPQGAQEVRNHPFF

SMILES: Cc1cn(CCN2CCN(c3ccccc3-c3cc(C#N)cc(C(=O)NCCCN4CCCC4)c3)CC2)c2ccccc12 [LLY-507, 3-cyano-5-{2-[4-[2-(3-methylindol-1-yl)ethyl]piperazin-1-yl]-phenyl}-N-[(3-pyrrolidin-1-yl)propyl]benzamide]
- change in lysine methylation of histone H3 or H4 [1]: did not show any significant change
- IC50 [2]: > 20 µM
- IC50 [3]: > 20 µM
- IC50 [4]: > 20 µM
- IC50 [5]: > 20 µM
- IC50 [6]: > 20 µM
- IC50 [7]: > 20 µM
- IC50 [8]: > 20 µM
- IC50 [9]: > 20 µM
- IC50 [10]: > 20 µM
- IC50 [11]: > 20 µM
- IC50 [12]: > 20 µM
- IC50 [13]: > 20 µM
- IC50 [14]: > 20 µM
- IC50 [15]: > 20 µM
- IC50 [16]: > 20 µM
- IC50 [17]: > 20 µM
- IC50 [18]: > 20 µM
- IC50 [19]: > 20 µM
- IC50 [20]: > 20 µM
- IC50 [21]: > 20 µM
- IC50 [22]: > 20 µM
- IC50 [23]: > 20 µM
- IC50 [24]: > 20 µM
- IC50 [25]: > 20 µM
- IC50 [26]: > 20 µM
- IC50 [27]: > 20 µM
- inhibition at 10 µM [28]: -15.6%
- inhibition at 10 µM [29]: 98%
